Laboratory results published in patent US9492468B2, “Methods and compositions for treatment of acute heart failure” (PERICOR THERAPEUTICS, INC., priority 2008, dated 2016).
Where a name gives a salt, the structure may show the parent alone.

Key:
NT-ProBNP = assay: Plasma NT-proBNP (competitive ELISA), dose escalation study; assay type: in vivo, dog
Method: Eight heart failure dogs described in Example 1 were used. Seven of 8 dogs underwent two studies, one with active drug GP-531 tartrate and one with vehicle (placebo) and 1 of 8 dogs underwent only one active drug GP-531 study. The order of active drug and placebo was randomized and performed about one week apart. In 6 of 8 dogs, after baseline hemodynamic, and ventriculographic measurements, vehicle was administered as a continuous intravenous infusion for one hour. At the end of one hour, the active drug GP-531 tartrate was administered in 3 escalating dose of continuous intravenous infusion with each dose maintained for one hour. At the end of the last drug dose, infusion was stopped and a washout period of one hour was instituted. The same infusion rates and times between doses were used when vehicle studies were performed. At the end of each hour, hemodynamic and angiographic measurements were made. Venous blood samples were obtained at baseline and at one hour after each dose. Blood samples (at least 10 mL) were centrifuged at 3000 rpm for 10 minutes and plasma withdrawn and placed in cryostorage tubes and stored upright at −20° C. for future use. In 2 of 8 dogs, active drug was administered as bolus followed by a constant infusion for 3 hours as noted below.
Plasma biomarkers were measured in Groups I and II. Troponin I (TnI) was determined in plasma based on the principle of the double antibody sandwich enzyme-linked immunosorbent assay (ELISA) (Hirano, T., et al., Immunol Today 1990, 11:443-449) and n-terminal brain natriuretic peptide (NT-pro-BNP) based on competitive ELISA (Bonow, R. O. Circulation 1996, 93:1946-1950). Both biomarkers were assayed using commercially available assay kits. Kits for NT proBNP and TnI were purchased from ALPCO Diagnostics, Salem, N.H. Using standard curves and software, the concentration of each biomarker was expressed as ng/ml for TnI and fmol/ml for NT-proBNP.

[1] = system: dogs with advanced heart failure; assay: GP-531 infusion simultaneously with 8-SPT (non-selective adenosine antagonist); assay type: in vivo, dog; settings: for Cardiac output (CO) / Heart rate (HR) / LV end-diastolic pressure (LVEDP) / LV end-diastolic volume (EDV) / LV end-systolic volume (ESV) / Mean aortic pressure (mAoP) / Stroke volume (SV) / Systemic vascular resistance (SVR): GP-531 infusion simultaneously with 8-SPT infusion
Method: At the completion of the 6 hour constant infusion study, a secondary study was performed in 3 heart failure dogs to assess the effects of GP-531 in the presence of the non-selective adenosine antagonist 8-p-sulfophenyl theophylline (8-SPT). After baseline hemodynamic and ventriculographic measurements, 8-SPT was administered as 10 mg/kg intravenous bolus followed by 10 mg/kg/hr constant infusion for 3 hours. Infusion of GP-531 tartrate was initiated simultaneously with infusion of 8-SPT at a dose of 10 μg/kg/hr and also maintained for 3 hours. Hemodynamic and ventriculographic measurements were made at 1, 2 and 3 hours.
All hemodynamic measurements were made during left and right heart catheterizations in anesthetized dogs at each specified study time point. Heart rate (HR), mean aortic pressure (mAoP), LV end-diastolic pressure (LVEDP), stroke volume (SV), cardiac output (CO) and systemic vascular resistance (SVR) were measured at each study time point. Left ventriculograms were performed during cardiac catheterization after completion of the hemodynamic measurements. Left ventriculograms were obtained with the dog placed on its right side and digitally recorded during the injection of 20 ml of contrast material (RENO-M-60 Squibb, Princeton, N.J.). Correction for image magnification was made using a radiopaque grid placed at the level of the LV. LV end-systolic (ESV) and end-diastolic volumes (EDV) were calculated from angiographic silhouettes using the area length method (Dodge H T, et al, Am J Cardiol. 1966; 18:10-24.). Premature beats and post-extra-systolic beats were excluded from the analysis. LV ejection fraction (EF) was calculated as the ratio of the difference of end-diastolic and end-systolic volumes to end-diastolic volume times 100, as described above.
Within group hemodynamic and angiographic data were analyzed using repeated measures analysis of variance (ANOVA) with alpha set at 0.05. If the overall ANOVA was significant, then pairwise comparisons between baseline and drug or placebo dose/time point were performed using the Student-Newman-Keuls test. For this test, a p-value of <0.05 was considered significant. All data are reported as the mean±SEM.

[2] = HF dogs n=3, administered simultaneously with 8-SPT, 3 h

In the case of `NC(=O)c1ncn(C2OC(CNCc3ccccc3)C(O)C2O)c1N` [GP-531, 5-amino-1-β-D-(5-benzylamino-5-deoxy-1-β-D-ribofuranosyl)imidazole-4 carboxamide], the “Plasma NT-ProBNP” value (NT-ProBNP; Group I HF dogs n=3, 1 h washout after 30/100/300 μg/kg/min) is reported as 204 ± 5 fmol/mL, the “Plasma NT-ProBNP” value (NT-ProBNP; Group I HF dogs n=3, iv 30 μg/kg/min, 1 h) is reported as 128 ± 23 fmol/mL and the “Plasma NT-ProBNP” value (NT-ProBNP; Group I HF dogs n=3, iv 100 μg/kg/min, 1 h) is reported as 131 ± 8 fmol/mL. The “Plasma NT-ProBNP” value (NT-ProBNP; Group I HF dogs n=3, iv 300 μg/kg/min, 1 h) was 121 ± 13 fmol/mL, the “Plasma NT-ProBNP” value (NT-ProBNP; Group II HF dogs n=3, 1 h washout after 3/10/30 μg/kg/min) was 179 ± 6 fmol/mL and the “Plasma NT-ProBNP” value (NT-ProBNP; Group II HF dogs n=3, iv 3 μg/kg/min, 1 h) was 225 ± 34 fmol/mL. The “Plasma NT-ProBNP” value (NT-ProBNP; Group II HF dogs n=3, iv 10 μg/kg/min, 1 h) was 155 ± 1 fmol/mL, the “Plasma NT-ProBNP” value (NT-ProBNP; Group II HF dogs n=3, iv 30 μg/kg/min, 1 h) was 123 ± 21 fmol/mL and the “Cardiac output (CO)” value ([1]; HF dogs n=3, 1 h) was 1.51 ± 0.08 L/min. For the same compound, the “Heart rate (HR)” value ([1]; HF dogs n=3, 1 h) was 80 ± 4 beats/min, the “LV end-diastolic pressure (LVEDP)” value ([1]; HF dogs n=3, 1 h) was 16 ± 0.0 mmHg and the “LV end-diastolic volume (EDV)” value ([1]; HF dogs n=3, 1 h) was 69 ± 3 mL. The “LV end-systolic volume (ESV)” value ([1]; HF dogs n=3, 1 h) was 50 ± 3 mL, the “Mean aortic pressure (mAoP)” value ([1]; HF dogs n=3, 1 h) was 97 ± 9 mmHg and the “Stroke volume (SV)” value ([1]; HF dogs n=3, 1 h) was 19 ± 0.6 rnl. The “Systemic vascular resistance (SVR)” value ([1]; HF dogs n=3, 1 h) was 5089 ± 203 dynes-sec-cm^−5, the “Cardiac output (CO)” value ([1]; HF dogs n=3, 2 h) was 1.57 ± 0.15 L/min and the “Heart rate (HR)” value ([1]; HF dogs n=3, 2 h) was 81 ± 5 beats/min. For the same compound, the “LV end-diastolic pressure (LVEDP)” value ([1]; HF dogs n=3, 2 h) was 16 ± 0.3 mmHg, the “LV end-diastolic volume (EDV)” value ([1]; HF dogs n=3, 2 h) was 69 ± 3 mL and the “LV end-systolic volume (ESV)” value ([1]; HF dogs n=3, 2 h) was 49 ± 2 mL. The “Mean aortic pressure (mAoP)” value ([1]; HF dogs n=3, 2 h) was 82 ± 6 mmHg, the “Stroke volume (SV)” value ([1]; HF dogs n=3, 2 h) was 19 ± 0.9 rnl and the “Systemic vascular resistance (SVR)” value ([1]; HF dogs n=3, 2 h) was 4191 ± 84 dynes-sec-cm^−5. For the same compound, the “Cardiac output (CO)” value ([1]; HF dogs n=3, 3 h) was 1.53 ± 0.05 L/min, the “Heart rate (HR)” value ([1]; HF dogs n=3, 3 h) was 81 ± 6 beats/min and the “LV end-diastolic pressure (LVEDP)” value ([1]; HF dogs n=3, 3 h) was 16 ± 0.3 mmHg. For the same compound, the “LV end-diastolic volume (EDV)” value ([1]; HF dogs n=3, 3 h) was 68 ± 3 mL, the “LV end-systolic volume (ESV)” value ([1]; HF dogs n=3, 3 h) was 49 ± 3 mL and the “Mean aortic pressure (mAoP)” value ([1]; HF dogs n=3, 3 h) was 82 ± 7 mmHg. The “Stroke volume (SV)” value ([1]; HF dogs n=3, 3 h) was 19 ± 1.0 rnl, the “Systemic vascular resistance (SVR)” value ([1]; HF dogs n=3, 3 h) was 4297 ± 253 dynes-sec-cm^−5 and the “Benefits on LV function in conjunction with 8-SPT” value ([1]; HF dogs, administered in conjunction with 8-SPT, non-selective adenosine receptor antagonist) was “abolished”.

`NC(=O)c1ncn(C2OC(CNCc3ccccc3)C(O)C2O)c1N` (centres unmarked) [GP-531 tartrate] was tested, and the “Effect on plasma NT-Pro-BNP” value (NT-ProBNP; Group I HF dogs, all doses (30, 100, 300 μg/kg/min), vs baseline) was “decreased significantly”, the “Effect on plasma NT-proBNP” value (NT-ProBNP; Group II HF dogs, 3, 10, 30 μg/kg/min, significance only at 30 μg/kg/min) was “tended to decrease with escalating doses” and the “Effect on CO” value [1, 2] was “no effects”. For the same compound, the “Effect on EDV” value [1, 2] was “no effects”, the “Effect on EF” value [1, 2] was “no effects” and the “Effect on ESV” value [1, 2] was “no effects”. The “Effect on HR” value [1, 2] was “no effects”, the “Effect on LVEDP” value [1, 2] was “no effects” and the “Effect on SV” value [1, 2] was “no effects”. The “Effect on SVR” value [1, 2] was “no effects” and the “Effect on mAoP” value [1, 2] was “no effects”.
